This experiment addresses T1, recombinant N-terminal MLH1 (residues 15-340) (Homo sapiens, UniProt P40692).
T1 construct: recombinant N-terminal MLH1 (residues 15-340)
T1 sequence (P40692 15-340): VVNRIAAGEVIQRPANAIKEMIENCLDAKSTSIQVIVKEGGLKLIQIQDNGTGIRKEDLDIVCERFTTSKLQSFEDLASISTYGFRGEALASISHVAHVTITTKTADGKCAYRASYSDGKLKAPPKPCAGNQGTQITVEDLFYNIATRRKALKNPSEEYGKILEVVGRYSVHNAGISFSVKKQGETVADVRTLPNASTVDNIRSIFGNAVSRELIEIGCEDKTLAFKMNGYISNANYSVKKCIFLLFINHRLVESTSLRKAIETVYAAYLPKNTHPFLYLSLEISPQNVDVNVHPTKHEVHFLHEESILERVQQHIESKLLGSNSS
Put plainly: Fluorescence Polarisation Assay for MLH1. The following applies: 100 nM N-terminal MLH1, 5 nM probe compound. The format is binding. Put shortly: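 Fluorescence polarisation displacement: 100 nM MLH1 (15-340) preincubated 30 min at room temperature with compound, then 5 nM rhodamine-labelled probe added and read immediately. Buffer 25 mM HEPES pH 7.5, 250 mM NaCl, 10 mM MgCl2, 0.01% Triton X-100, 5 mM DTT; normalised to no-inhibitor and no-enzyme controls.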
In general terms: Fluorescence polarisation rises when a labelled molecule tumbles more slowly, as on binding a larger partner.

A value given as a limit tells only on which side of the number the result lay.

For `CN1CC(Oc2ccc3c(c2)CCN(C(=O)c2c(O)cc(C(F)F)cc2OCc2ccccc2)C3)C1` [Example 4.66, (2-(Benzyloxy)-4-(difluoromethyl)-6-hydroxyphenyl)(6-((1-methylazetidin-3-yl)oxy)-3,4-dihydroisoquinolin-2(1H)-yl)methanone], the 50% inhibitory concentration (IC50) lay within 100 to 1000 nM. Take `CN1CC[C@@H](Oc2ccc3c(c2)CN(C(=O)c2c(O)cc(C(F)F)cc2OCc2ccccc2)CC3)C1` [Example 4.67, (R)-(2-(Benzyloxy)-4-(difluoromethyl)-6-hydroxyphenyl)(7-((1-methylpyrrolidin-3-yl)oxy)-3,4-dihydroisoquinolin-2(1H)-yl)methanone]: the IC50 lay in the range of 100 to 1000 nM. With `CN1CC[C@H](Oc2ccc3c(c2)CN(C(=O)c2c(O)cc(C(F)F)cc2OCc2ccccc2)CC3)C1` [Example 4.68, (S)-(2-(Benzyloxy)-4-(difluoromethyl)-6-hydroxyphenyl)(7-((1-methylpyrrolidin-3-yl)oxy)-3,4-dihydroisoquinolin-2(1H)-yl)methanone], the IC50 lay within 100 to 1000 nM. Under `CN1CC(Oc2ccc3c(c2)CN(C(=O)c2c(O)cc(C(F)F)cc2OCc2ccccc2)CC3)C1` [Example 4.69, (2-(Benzyloxy)-4-(difluoromethyl)-6-hydroxyphenyl)(7-((1-methylazetidin-3-yl)oxy)-3,4-dihydroisoquinolin-2(1H)-yl)methanone] stands 100 to 1000 nM; under `O=C(c1c(O)cc(C(F)F)cc1OCc1ccccc1)N1Cc2ccc(OCCN3CCOCC3)cc2C1` [Example 4.70, (2-(Benzyloxy)-4-(difluoromethyl)-6-hydroxyphenyl) (5-(2-morpholinoethoxy)isoindolin-2-yl) methanone], 100 to 1000 nM; under `CN1CCN(CCOc2ccc3c(c2)CN(C(=O)c2c(O)cc(C(F)F)cc2OCc2ccccc2)C3)CC1` [Example 4.71, (2-(Benzyloxy)-4-(difluoromethyl)-6-hydroxyphenyl) (5-(2-(4-methylpiperazin-1-yl)ethoxy)isoindolin-2-yl) methanone], 100 to 1000 nM. Take `CN(C)CCOc1cc2c(c(NC3CCCC3)c1)CN(C(=O)c1c(O)cc(C(F)F)cc1OCc1ccccc1)CC2` [Example 4.72, (2-(Benzyloxy)-4-(difluoromethyl)-6-hydroxyphenyl)(8-(cyclopentylamino)-6-(2-(dimethylamino)ethoxy)-3,4-dihydroisoquinolin-2(1H)-yl)methanone]: the IC50 is < 100 nM. Under `CNc1cc(OCCN(C)C)cc2c1CN(C(=O)c1c(O)cc(C(F)F)cc1OCc1ccccc1)CC2` [Example 4.73, (2-(Benzyloxy)-4-(difluoromethyl)-6-hydroxyphenyl)(6-(2-(dimethylamino)ethoxy)-8-(methylamino)-3,4-dihydroisoquinolin-2(1H)-yl)methanone] stands 100 to 1000 nM; under `CN(C)CCOc1cc2c(c(C(F)F)c1)CN(C(=O)c1c(O)cc(C(F)F)cc1OCc1ccccc1)CC2` [Example 4.74, (2-(Benzyloxy)-4-(difluoromethyl)-6-hydroxyphenyl)(8-(difluoromethyl)-6-(2-(dimethylamino)ethoxy)-3,4-dihydroisoquinolin-2(1H)-yl)methanone], 100 to 1000 nM; under `CN(C)CCOc1cc2c(c(N[C@@H]3CCOC3)c1)CN(C(=O)c1c(O)cc(C(F)F)cc1OCc1ccccc1)C2` [Example 4.75, (R)-(2-(Benzyloxy)-4-(difluoromethyl)-6-hydroxyphenyl) (6-(2-(dimethylamino)ethoxy)-4-((tetrahydrofuran-3-yl)amino)isoindolin-2-yl)methanone], < 100 nM. `CN(C)CCOc1cc2c(c(N[C@H]3CCOC3)c1)CN(C(=O)c1c(O)cc(C(F)F)cc1OCc1ccccc1)C2` [Example 4.76]: the IC50 was < 100 nM.

For the compound `COCCOc1ccc2c(c1)CN(C(=O)c1c(O)cc(C(F)F)cc1OCc1ccccc1)C2` [Example 4.77, (2-(Benzyloxy)-4-(difluoromethyl)-6-hydroxyphenyl)(5-(2-methoxyethoxy)isoindolin-2-yl)methanone], the IC50 was in the range of 100 to 1000 nM. On to `O=C(c1c(O)cc(C(F)F)cc1OCc1ccccc1)N1Cc2ccc(OC3CCOCC3)cc2C1` [Example 4.78, (2-(Benzyloxy)-4-(difluoromethyl)-6-hydroxyphenyl) (5-((tetrahydro-2H-pyran-4-yl)oxy)isoindolin-2-yl)methanone], for which the IC50 is 100 to 1000 nM. `O=C(c1c(O)cc(C(F)F)cc1OCc1ccccc1)N1Cc2cccc(OC3CCOC3)c2C1` (stereo not drawn) [Example 4.79, (2-(Benzyloxy)-4-(difluoromethyl)-6-hydroxyphenyl)(4-((tetrahydrofuran-3-yl)oxy)isoindolin-2-yl)methanone]: the IC50 was 1000 to 10000 nM. As for `O=C(c1c(O)cc(C(F)F)cc1OCc1ccccc1)N1CCc2cccc(OC3CCOC3)c2C1` (stereo not drawn) [Example 4.80], the IC50 was in the range of 1000 to 10000 nM. As for `O=C(c1c(O)cc(F)cc1OCc1ccccc1)N1Cc2cccc(N[C@H]3CCOC3)c2C1` [Example 5, (S)-(2-(Benzyloxy)-4-fluoro-6-hydroxyphenyl)(4-((tetrahydrofuran-3-yl)amino)isoindolin-2-yl)methanone], the IC50 was 100 to 1000 nM. Regarding `O=C(c1c(O)cc(F)cc1OCc1ccccc1)N1Cc2cccc(N[C@@H]3CCOC3)c2C1` [Example 6, (R)-(2-(Benzyloxy)-4-fluoro-6-hydroxyphenyl)(4-((tetrahydrofuran-3-yl)amino)isoindolin-2-yl)methanone], the IC50 lay within 1000 to 10000 nM.

For `O=C(c1c(O)cc(Cl)cc1OCc1ccccc1)N1Cc2cccc(N[C@@H]3CCOC3)c2C1` [Example 7, (R)-(2-(Benzyloxy)-4-chloro-6-hydroxyphenyl)(4-((tetrahydrofuran-3-yl)amino)isoindolin-2-yl)methanone], the IC50 lay in the range of 1000 to 10000 nM.

`O=C(c1c(O)cc(Cl)cc1OCc1ccccc1)N1Cc2cccc(N[C@H]3CCOC3)c2C1` [Example 8, (S)-(2-(Benzyloxy)-4-chloro-6-hydroxyphenyl)(4-((tetrahydrofuran-3-yl)amino)isoindolin-2-yl)methanone]: the IC50 is 100 to 1000 nM.

Take `CN(C)CCOc1cc2c(c(N[C@@H]3CCOC3)c1)CN(C(=O)c1c(O)cc(Cl)cc1OCc1ccccc1)C2` [Example 9, (R)-(2-(Benzyloxy)-4-chloro-6-hydroxyphenyl)(6-(2-(dimethylamino)ethoxy)-4-((tetrahydrofuran-3-yl)amino)isoindolin-2-yl)methanone]: the IC50 is 100 to 1000 nM. In the case of `CN(C)CCOc1cc2c(c(N[C@H]3CCOC3)c1)CN(C(=O)c1c(O)cc(Cl)cc1OCc1ccccc1)C2` [Example 10, (S)-(2-(Benzyloxy)-4-chloro-6-hydroxyphenyl)(6-(2-(dimethylamino)ethoxy)-4-((tetrahydrofuran-3-yl)amino)isoindolin-2-yl)methanone], the IC50 was < 100 nM. Turning to `COc1cc2c(c(N[C@@H]3CCOC3)c1)CN(C(=O)c1c(O)cc(Cl)cc1OCc1ccccc1)C2` [Example 10.1, (R)-(2-(Benzyloxy)-4-chloro-6-hydroxyphenyl)(6-methoxy-4-((tetrahydrofuran-3-yl)amino)isoindolin-2-yl)methanone], the half-inhibitory concentration (IC50) was in the range of 1000 to 10000 nM. Under `COc1cc2c(c(N[C@H]3CCOC3)c1)CN(C(=O)c1c(O)cc(Cl)cc1OCc1ccccc1)C2` [Example 10.2, (S)-(2-(Benzyloxy)-4-chloro-6-hydroxyphenyl)(6-methoxy-4-((tetrahydrofuran-3-yl)amino)isoindolin-2-yl)methanone] stands 100 to 1000 nM; under `CN1CC(Nc2cccc3c2CN(C(=O)c2c(O)cc(C#N)cc2OCc2ccccc2)C3)CC1=O` (stereo not drawn) [Example 10.3, 3-(Benzyloxy)-5-hydroxy-4-(4-((1-methyl-5-oxopyrrolidin-3-yl)amino)isoindoline-2-carbonyl)benzonitrile], 100 to 1000 nM. For `N#Cc1cc(O)c(C(=O)N2Cc3cccc(Nc4cncnc4)c3C2)c(OCc2ccccc2)c1` [Example 10.4, 3-(Benzyloxy)-5-hydroxy-4-(4-(pyrimidin-5-ylamino)isoindoline-2-carbonyl)benzonitrile], the IC50 lay within 1000 to 10000 nM. The figure for `CC(=O)N1CC[C@@H](Nc2cccc3c2CN(C(=O)c2c(O)cc(C#N)cc2OCc2ccccc2)C3)C1` [Example 10.5, (R)-4-(4-((1-Acetylpyrrolidin-3-yl)amino)isoindoline-2-carbonyl)-3-(benzyloxy)-5-hydroxybenzonitrile] is 100 to 1000 nM.

`CC(=O)N1CC[C@H](Nc2cccc3c2CN(C(=O)c2c(O)cc(C#N)cc2OCc2ccccc2)C3)C1` [Example 10.6, (S)-4-(4-((1-Acetylpyrrolidin-3-yl)amino)isoindoline-2-carbonyl)-3-(benzyloxy)-5-hydroxybenzonitrile]: the IC50 is 100 to 1000 nM. `N#Cc1cc(O)c(C(=O)N2Cc3cccc(NCc4cocn4)c3C2)c(OCc2ccccc2)c1` [Example 10.9, 3-(Benzyloxy)-5-hydroxy-4-(4-((oxazol-4-ylmethyl)amino)isoindoline-2-carbonyl)benzonitrile]: the IC50 is 100 to 1000 nM.

Consider `N#Cc1cc(O)c(C(=O)N2Cc3cccc(NCC4CCOC4)c3C2)c(OCc2ccccc2)c1` (stereo not drawn) [Example 10.10, 3-(Benzyloxy)-5-hydroxy-4-(4-(((tetrahydrofuran-3-yl)methyl)amino)isoindoline-2-carbonyl)benzonitrile], for which the IC50 lay in the range of 1000 to 10000 nM.

Regarding `COc1cccc2c1CN(C(=O)c1c(O)cc(C#N)cc1OCc1ccccc1)C2` [Example 10.11, 3-(Benzyloxy)-5-hydroxy-4-(4-methoxyisoindoline-2-carbonyl)benzonitrile], the IC50 lay within 1000 to 10000 nM.

The IC50 is the concentration that gives 50% inhibition.

(Values after patent US20260217687A1 (NeoPhore Limited, priority 2023, published 2026).)
